Experimental data taken from US20250017910A1, “2-Thioxothiazolidine-4-One Derivatives And Their Uses” (Prosetta Biosciences, Inc., priority 2023, published 2025).

Molecular target: T1, alpha syn aggregates (Homo sapiens, UniProt P37840)
T1 construct: expressed in transfected cells; host or cells: NLF cells, Tet-on inducible expression
Test: Assay for Methamphetamine Addiction: alpha syn aggregates in NLF cells with or without amphetamine
Format: cell-based
Details: FIG. 1
Description: FIG. 1 illustrates the average number of a syn aggregates per cell.
NLF cells were transfected with alpha synuclein behind a Tet-on promoter and induced to express alpha syn, resulting in the appearance of alpha syn aggregates. […] Aggregates were counted in ten randomly chosen fields and highest 3 in all conditions were quantified.

SMILES	amphetamine mediated increase of alpha syn aggregates (0.5 mM amphetamine and 1 μM of compound)	number of alpha syn aggregates (treatment with 1 μM of compound)	number of alpha syn aggregates (treatment with 0.5 mM amphetamine)
CN1CCN(c2ccc(-c3ccc(/C=C4\SC(=S)N(CCc5ccccc5)C4=O)o3)cc2)CC1 [Compound 13]	eliminated the amphetamine mediated increase of aggregates	reduced the number of aggregates	
CC(N)Cc1ccccc1 (stereo not drawn) [amphetamine, reference compound]			increased the number of aggregates
